Measurements reported in article PMC9405451, “Uptake and Immunomodulatory Properties of Betanin, Vulgaxanthin I and Indicaxanthin towards Caco-2 Intestinal Cells” (Antioxidants, 2022).

Experiments:
[1] = system: GSTP-1; assay: GSTP-1 mRNA level (qPCR) in cytokine-stimulated Caco-2 cells; format: cell-based, human; details: 5–80 μM, 6 h cytokine stimulation, vs SC
Protocol: (§1) Confluent Caco-2 cells were stimulated with a cocktail of cytokines comprised of tumour necrosis factor-α (TNF-α, 20 ng mL^−1), interleukin-1β (IL-1β, 40 ng mL^−1), interferon-γ (IFN-γ, 10 ng mL^−1) and lipopolysaccharide (LPS, 100 ng mL^−1) in the presence or absence of BET, VUL and IND treatments (5–80 µM) for 6 h. With the completion of incubations, cells were washed with cold DPBS and lysed with TRIsure reagent (Scientific Laboratory Supplies Ltd.). Total RNA of cell samples was extracted in accordance with the manufacturer’s instructions. After resuspending the RNA pellets in DEPC water, concentration and quality were determined using the NanoQuant plate (Tecan Spark 10M plate reader) at 260 and 280 nm. Reverse transcription of RNA was achieved using the iScript™ cDNA Synthesis Kit (Bio-Rad). Transcription levels of target genes—interleukin 6 (IL-6), IL-8, COX-2, iNOS, NADPH oxidase 1 (NOX-1), NAD(P)H quinone dehydrogenase 1 (NQO-1), heme oxygenase 1 (HO-1), glutamate-cysteine ligase catalytic subunit (GCLC), glutathione peroxidase 1 (GPX-1), glutathione S-transferase 1 (GSTA-1) and GSTP-1 were evaluated using SybrGreen based reagent (SensiFast SYBR Green, SLS Ltd., Galveston, TX, USA) via real-time qPCR using StepOne Plus Real-Time PCR System (Applied Biosystems, Nottingham, UK). […]

[2] = system: NQO-1; assay: NQO-1 mRNA level (qPCR) in cytokine-stimulated Caco-2 cells; format: cell-based, human; details: 5–80 μM, 6 h cytokine stimulation, vs SC
Protocol: as §1

[3] = system: iNOS; assay: iNOS mRNA level (qPCR) in cytokine-stimulated Caco-2 cells; format: cell-based, human; details: 5–80 μM, 6 h cytokine stimulation, maximum effect
Protocol: as §1

[4] = set-up: method as in PMID 18959410; details: purified compound; cited from earlier work
[5] = system: differentiated Caco-2 cells; assay: Intracellular accumulation in differentiated Caco-2 cells; format: in vitro ADME, human; details: 250 μM, 2 h incubation in HBSS
Protocol: For accumulation experiments, differentiated Caco-2 cells were incubated with purified BET, VUL and IND (250 μM) for 2 h in HBSS. The cell layer was washed twice with DPBS prior to being scraped into methanol, and pigments were subsequently extracted for LC-MS analysis. The total protein content of lysed cells was determined by bicinchoninic acid (BCA) assay (Pierce™ Thermo Scientific) in accordance with the manufacturer’s instructions.
(§2) Betalain compounds from the cell culture samples were quantified and identified by an ultra-high-speed LC fitted with a UV-Vis detector (SPD-20A), followed by a single quadrupole MS with an electrospray ionisation source (ESI) (Shimazu, 2020). HPLC separation was performed by a reverse phase C18 column (100 mm × 2.1 mm I.D., 3.5 μm) at the temperature of 35 °C. […] Betacyanins and betaxanthins were detected at the wavelengths of 536 nm and 486 nm, respectively, and their molecular weights were monitored by ESI-MS with positive ion mode. Compounds were identified based on the m/z values and quantified using standard curves with purified betalains, as shown in Supplemental Figure S1.

[6] = system: Caco-2 cells; assay: Intracellular ROS formation (DCFH2-DA) in H2O2-stressed Caco-2 cells; format: cell-based, human; details: throughout concentration range 5–80 μM, 200 μM H2O2
Protocol: The generation of reactive oxygen species (ROS) within Caco-2 cells was determined in 96-well plates with the probe 2′,7′-dichlorodihydrofluorescein diacetate (DCFH2-DA), which is intracellularly deacetylated and oxidised to highly fluorescent 2′,7′-dichlorofluorescein (DCF). DCFH2-DA (30 µM) dissolved in PBS with 1% FBS (v/v) was applied to the confluent Caco-2 cells and incubated for 40 min at 37 °C. After washing, cells were treated with BET, VUL and IND (5–80 μM) for 1 h and subsequently stressed with H2O2 (200 μM) for a further 1 h. The plate was scanned using Tecan Spark 10M^TM with excitation λ of 485 nm and emission λ of 535 nm. Subsequently, the protein content of each well was determined by SRB assay. Briefly, the medium was removed and the cells were washed with PBS and submerged with 50 μL of 0.004% SRB solution (w/v) in 10% trichloroacetic acid (w/v). Cells were incubated at room temperature for 15 min and washed with 1% acetic acid (200 μL, v/v). After treating with Tris base (10 mM, 100 μL), cells were incubated for 5 min under shaking conditions. Finally, the plate was scanned using a Tecan plate reader with excitation λ of 540 nm and emission λ of 590 nm. Results of the ROS assay were normalised to the relative protein content for each well and expressed as the relative fluorescence intensity % (RFI) with respect to the value of positive control.

[7] = system: GSTA-1; assay: GSTA-1 mRNA level (qPCR) in cytokine-stimulated Caco-2 cells; format: cell-based, human; details: 5–80 μM, 6 h cytokine stimulation, vs SC
Protocol: as §1

[8] = system: NOX-1; assay: NOX-1 mRNA level (qPCR) in cytokine-stimulated Caco-2 cells; format: cell-based, human; details: 5–80 μM, 6 h cytokine stimulation, maximum effect
Protocol: as §1

[9] = system: GSTM; set-up: method as in PMID 23769299; details: 20 μM, human hepatocytes; cited from earlier work
[10] = Trans-epithelial transport (AP-to-BL) across differentiated Caco-2 monolayer; format: in vitro ADME, human; details: human, Caco-2, 1 mM in AP chamber, apical pH 6.5, basolateral pH 7.5, read-out: Papp (apparent permeability coefficient), absorptive direction AP-to-BL
Protocol: (§3) Trans-epithelial transport of purified betalains (AP-to-BL) was investigated in differentiated Caco-2 cells in 12-well plate transwell inserts (PET membrane, 0.4 μm pore size, Sarstedt) at an initial density of 1 × 10^5 cells cm^−2. Complete medium was added in both apical (AP) and basolateral (BL) chambers and was replaced every 2–3 days. Cell membrane integrity was monitored weekly through measurement of trans-epithelial electrical resistance (TEER) across the growth area until full differentiation of the cells after 21 days. During the experiment, Hanks’ balanced salt solution (HBSS) in the apical compartment was adjusted to pH 6.5 with MES (2 mM), while basolateral pH remained at 7.5 [25]. Purified BET, VUL and IND (420–1000 μM) were supplied to the apical side of the membrane and incubated at 37 °C for up to 2 h. As a marker compound of paracellular transport, phenolsulfonaphtalein (5 mM) was also applied to parallel cell membranes in the apical chamber. The study also evaluated the permeability of compounds through the Caco-2 membrane with a loosened tight junction in parallel wells which was achieved by 5-min incubation of differentiated membrane in trypsin EDTA (0.05%, v/v). The basolateral solution was collected and replaced every 30 min until 2 h, under initial rate conditions. The betalain-containing solutions were processed and submitted to LC-MS analysis, while phenolsulfonaphtalein was quantified spectrophotometrically at λ of 430 nm. TEER values were monitored at the beginning and the end of the experiment to check the impact of compounds on monolayer integrity. The apparent permeability coefficients (Papp) were calculated as per Equation (1), where V = volume of basolateral solution, A = cell growth area, C0 = initial concentration of apical betalain and dC/dt = steady-state flux across the monolayer. (1) Papp=1/C0×A·V×dC/dt
as §2

[11] = system: differentiated Caco-2 cells; assay: as above; format: in vitro ADME, human; details: AP-to-BL
Protocol: as §3, §2

[12] = system: COX-2; assay: COX-2 mRNA level (qPCR) in cytokine-stimulated Caco-2 cells; format: cell-based, human; details: 5–80 μM, 6 h cytokine stimulation, maximum effect
Protocol: as §1

[13] = system: GPX-1; assay: GPX-1 mRNA level (qPCR) in cytokine-stimulated Caco-2 cells; format: cell-based, human; details: 5–80 μM, 6 h cytokine stimulation, vs SC
Protocol: as §1

[14] = system: IL-6; assay: IL-6 mRNA level (qPCR) in cytokine-stimulated Caco-2 cells; format: cell-based, human; details: 5–80 μM, 6 h cytokine stimulation, maximum effect
Protocol: (§4) Confluent Caco-2 cells were stimulated with a cocktail of cytokines comprised of tumour necrosis factor-α (TNF-α, 20 ng mL^−1), interleukin-1β (IL-1β, 40 ng mL^−1), interferon-γ (IFN-γ, 10 ng mL^−1) and lipopolysaccharide (LPS, 100 ng mL^−1) in the presence or absence of BET, VUL and IND treatments (5–80 µM) for 6 h. With the completion of incubations, cells were washed with cold DPBS and lysed with TRIsure reagent (Scientific Laboratory Supplies Ltd.). Total RNA of cell samples was extracted in accordance with the manufacturer’s instructions. After resuspending the RNA pellets in DEPC water, concentration and quality were determined using the NanoQuant plate (Tecan Spark 10M plate reader) at 260 and 280 nm. Reverse transcription of RNA was achieved using the iScript™ cDNA Synthesis Kit (Bio-Rad). Transcription levels of target genes—interleukin 6 (IL-6), IL-8, COX-2, iNOS, NADPH oxidase 1 (NOX-1), NAD(P)H quinone dehydrogenase 1 (NQO-1), heme oxygenase 1 (HO-1), glutamate-cysteine ligase catalytic subunit (GCLC), glutathione peroxidase 1 (GPX-1), glutathione S-transferase 1 (GSTA-1) and GSTP-1 were evaluated using SybrGreen based reagent (SensiFast SYBR Green, SLS Ltd., Galveston, TX, USA) via real-time qPCR using StepOne Plus Real-Time PCR System (Applied Biosystems, Nottingham, UK). Primers of target genes were designed and blasted using the NCBI database, whose PCR product sizes were confirmed by 2% agarose gel electrophoresis. The list of primer sequences used in the study is presented in Supplemental Table S1. The calculation of target gene levels was based upon the Livak (2^−ΔΔCT) method with normalisation to the housekeeping gene, β-actin [31].

[15] = system: NQO-1; set-up: method as in PMID 23769299; details: 20 μM, human hepatocytes; cited from earlier work
[16] = system: GCLC; assay: GCLC mRNA level (qPCR) in cytokine-stimulated Caco-2 cells; format: cell-based, human; details: 5–80 μM, 6 h cytokine stimulation, vs SC
Protocol: as §1

[17] = EPR DPPH radical scavenging assay; details: 20 μM betalain
Protocol: (§5) Electron paramagnetic resonance (EPR) with spin trapping was used to determine superoxide and DPPH radical scavenging abilities of betalains reflected by the reduction of relative signal strength. EPR spectra were recorded 1 min after reagent mixing on a JEOL X320 spectrometer (X-band) in glass capillaries (0.8 mm ID). Superoxide assay was carried out by mixing the following solutions in 30% aqueous ethanol as solvent: hypoxanthine (1 mM, 55 μL), 5,5-dimethyl-1-pyrroline-N-oxide (DMPO) (1 M, 15 μL) and deferoxamine (10 mM, 10 μL). Individual betalains (200 and 500 μM) or solvent control were subsequently added in a volume of 10 μL. The reaction was initiated by the addition of 2 U mL^−1 xanthine oxidase (10 μL), achieving 20 and 50 μM as final concentrations of betalains in the mixture.
(§6) The 2,2-diphenyl-1-(2,4,6-trinitrophenyl)hydrazyl (DPPH) assay was conducted by mixing ethanol (40 μL) with 30% aqueous ethanol solutions of DPPH (100 μM, 50 μL) and purified betalains (200 μM, 10 μL), providing the working concentration of betalains as 20 μM. In both assays, acquisition of EPR spectra was started 1 min after reagent mixing. To improve the accuracy of measurements, the signal intensity for the superoxide assay was determined in triplicate by fitting the experimental spectra to the simulated superoxide-DMPO adduct spectra.

[18] = EPR spin-trapping superoxide radical scavenging assay; details: 20, 50 μM betalain
Protocol: as §5, §6

[19] = system: HO-1; assay: HO-1 mRNA level (qPCR) in cytokine-stimulated Caco-2 cells; format: cell-based, human; details: 5–80 μM, 6 h cytokine stimulation, vs SC
Protocol: as §1

[20] = system: IL-8; assay: IL-8 mRNA level (qPCR) in cytokine-stimulated Caco-2 cells; format: cell-based, human; details: 5–80 μM, 6 h cytokine stimulation, maximum effect
Protocol: as §4

- Intracellular accumulation [5]: 0.02 nmol per mg of protein
- Papp A→B at 2 h, 1 mM [10]: 0.415 ×10⁻⁶ cm/s
- Proportion transported within 2 h of total amount applied [11]: 1.0%
Compound: O=C(O)C1=C/C(=C/C=[N+]2/c3cc(O)c(O[C@@H]4O[C@H](CO)[C@@H](O)[C@H](O)[C@H]4O)cc3C[C@H]2C(=O)[O-])C[C@@H](C(=O)O)N1 [BET, betanin]
- Upregulation of GSTP-1 expression [1]: < 24%
- Upregulation of NQO-1 expression [2]: < 24%
- Reduction of iNOS mRNA levels [3]: < 42%
- Loss along the digestion [4]: up to 70%
- Suppression of H2O2-stimulated ROS [6]: < 64%
- Induction of GSTA-1 expression [7]: < 51%
- Attenuation of NOX-1 mRNA levels [8]: up to 34%
- Increase of GSTM expression in the baseline [9]: ~100%
- Attenuation of COX-2 mRNA levels [12]: up to 34%
- Upregulation of GPX-1 expression [13]: < 23%
- Downregulation of IL-6 expression vs cytokine control (SC) [14]: up to 50%
- Increase of NQO-1 expression in the baseline [15]: ca. 60%
- Upregulation of GCLC expression [16]: < 33%
- Decrease in EPR signal intensity, DPPH assay [17]: < 71%
- Decrease in EPR signal intensity, superoxide assay [18]: < 35%
- Upregulation of HO-1 expression [19]: < 24%
- Downregulation of IL-8 expression vs cytokine control (SC) [20]: ≤ 39%
